Values of other authors in patent US8303934B2, “Methods and compositions of [32P]-labeled adenine nucleotides for the treatment of atherosclerosis, vascular arterial diseases and coronary artery diseases” (priority 2011, dated 2012).

Tested on: established human xenographed tumors
Details: established human xenografted tumors in athymic mice; low-level doses

**Q.** For Nc1ncnc2c1ncn2[C@@H]1O[C@H](COP(=O)(O)OP(=O)(O)OP(=O)(O)O)[C@@H](O)[C@H]1O [[32P]ATP, [32P]adenosine 5′-triphosphate], which “activity as an anti-tumor cytotoxic agent” value is on record?
**A.** very active
